In patent US10308938B2, “Compositions and methods to activate or inhibit toll-like receptor signaling” (priority 2014, dated 2019):
Oligonucleotides are written 5' to 3', each unit as a sugar letter and its base; * is a phosphorothioate linkage, no mark a phosphodiester; rarer units and linkages stand in square brackets, end groups in braces. Plain capitals give the bases only. d = 2'-deoxy (DNA)

Columns and labels:
[1] = tested on: HIV-1NL-D; assay: HIV-1 in vitro infection of CD4+ T cells; format: cell-based; details: for frequency of HIV-1-infected CD4+ T cells: treatment before infection, MOI 0.001
Procedure: Preparation of HIV-1 virus stocks. HIV-1 proviral DsRed-tagged DNA pNL-D (derived from the prototype HIV-1 proviral DNA pNL432) was kindly provided by Dr. Yasuko Tsunetsugu-Yokota. 293T cells were used to prepare viral stocks following published protocols with minor modifications. In brief, 293T cells were plated at 0.5×10^6/well in 12-well plates and transfected with 2 μg pNL-D using Lipofectamine 2000 (Invitrogen) for 48 hours. Culture supernatant was treated with benzonase (1U/ml) for 30 minutes at 37 C, cleared by filtration and titrated on 293T cells. Stocks were stored at −80 C.
HIV-1 in vitro infection. CD4^+ T cells were stimulated with anti-CD3 (1 μg/ml) and anti-CD28 (1 μg/ml) for 48 hours and subsequently infected with HIV-1 at a MOI of 0.001 (concentration within the physiological range). Viability and cytokine secretion was measured every 48 hours for a total of 11 days after infection.
For HIV-1 infection on TLR7-deficient cells, CD4^+ T cells were stimulated as above and transduced with the corresponding lentiviral particles. 48 hours after transduction, the cells were infected with HIV-1NL-D at a MOI of 0.001. Viability and frequency of HIV-1-infected cells were measured at different time points by LIVE/DEAD cell dye staining and fixation with 1% PFA (to avoid DsRed signal loss). For intracellular staining after infection, the cells were restimulated with PMA and Ionomycin in the presence of GolgiStop for 4 hours and the staining was performed as recommended by Grupillo et al.

[2] = tested on: CD4^+ T cells; assay: Anergy-related gene expression, TaqMan real-time PCR; format: cell-based, human; details: preincubation with IRS661 before IMQ
Text: (§1) Quantification of mRNA expression levels by RT-PCR. RNA was isolated using QIAGEN RNeasy Micro Plus Kit (QIAGEN, Valencia, Calif.), following manufacturer's guidelines and converted to cDNA by reverse transcription (RT) with random hexamers and Multiscribe RT (TQMN, Reverse Transcription Reagents; Applied Biosystems, Foster City, Calif.). For mRNA gene expression assays, probes were purchased from Applied Biosystems (Table 2) and the reactions were set up following manufacturer's guidelines and run on a StepOne Real-Time PCR System (Applied Biosystems). Values are represented as the difference in Ct values normalized to β2-microglobulin for each sample as per the following formula: Relative RNA expression=(2^−dCt)×1000.
To examine whether TLR7 stimulation and subsequent NFAT dephosphorylation induces the expression of anergy-related genes, CD4^+ T cells were incubated for 2-16 hours with IMQ in the presence or absence of the TLR7 inhibitory sequence IRS661 and RNA was isolated to examine the hypothesis that TLR7 engagement induced expression of anergy-related genes previously described. As a control for anergy-related gene expression, CD4^+ T cells were incubated with either ionomycin and PMA or ionomycin alone. […] The effect observed in the regulation of these genes was TLR7-specific, as preincubation of CD4^+ T cells with IRS661 before IMQ treatment abrogated the increase in anergy-related gene expression.

[3] = tested on: HIV-1 (NL-432); assay: HIV-1 infection of humanized MISTRG mice, viral load; format: in vivo, mouse; details: 20 μM IRS661 at day 0 or day 14 after infection
Procedure: Mouse experiments. MISTRG mice (Nature Biotechnology 2014; 32; 364-372) were infected with HIV-1 (50 ng p24) at day 0 in the presence of 20 μM IRS661 or control sequence (at either day 0 or day 14). Serum was obtained at different time points and RNA was isolated by Direct-zol RNA MiniPrep kit (Zymo Research). Viral load was measured by Gag amplification by Real Time PCR
In order to test the role of TLR7 inhibition in HIV-1 infection in vivo, a humanized mouse model (Rongvaux et al., Nat. Biotech., 32:364-372 (2014)) was used. Three groups of mice were infected with HIV-1 (NL-432): one control group, another group that was injected with IRS661 at the same time of HIV-1 infection (day 0), and a third group where IRS661 was injected at the peak of infection (day 14 after HIV-1 infection). […] For those mice that were injected with IRS661 at day 14 after infection (FIG. 55, white dots), viral load was measured at day 21 after infection. One mouse from the control group (black dots) died at day 17.

[4] = tested on: HIV-1; details: supernatants every three days, 14 days
Text: CD4^+ T cells isolated from HIV-1 infected patients (Table 3) were stimulated in the presence of IRS661 (FIG. 50) or were transduced with two TLR7-specific shRNA (FIG. 51) with supernatant collections every three days for a total of 14 days to measure virus concentration by p24 ELISA.

[5] = tested on: HIV-1^+CD4^+ T cells; assay: Anergy-related gene expression in in vitro HIV-1-infected CD4+ T cells; format: cell-based, human; details: day seven after infection
Text: as §1
To confirm this observation, the expression of anergy-related genes in in vitro HIV-1-infected CD4^+ T cells from five healthy donors in the presence of IRS661 (to inhibit TLR7) or a control sequence at day seven after infection was examined (FIG. 40).

[6] = tested on: HIV-1; details: day seven; compared to control cells
Procedure: Furthermore, proviral integrated DNA load was measured at day seven after stimulation in the presence of IRS661 or a control sequence (FIG. 52) and after transduction with TLR7-specific shRNA (FIG. 53) to monitor the cellular viral reservoir.

[7] = tested on: CD4^+ T cells; assay: Intracellular calcium measurement (INDO-1AM); format: cell-based, human
Procedure: Intracellular calcium measurements. Ex vivo isolated CD4^+ T cells were labeled with 5 μM INDO-1AM for one hour at 37° C. in PBS, 1 mM Ca^2+. Cells were washed to remove traces of INDO-1AM, resuspended in buffer at 10^6 cells/ml and incubated for 30 minutes at 37° C. before analysis. When necessary, IRS661 was added at the indicated concentration during the 30 minute incubation. For acquisition, the sample was acquired for approximately 3 minutes to obtain basal levels of calcium and subsequently IMQ or other reagents were added at the indicated concentrations. Samples were acquired for a minimum of 10 minutes on a BD Fortessa instrument and analysed with FlowJo software.

[8] = tested on: memory T cells; assay: IMQ pretreatment, washout, rest and restimulation with anti-CD3 and anti-CD28; format: cell-based, human; details: IRS661 pretreated cells
Procedure: (§2) Enzyme-linked immunosorbent assay.
To determine if pretreatment of CD4^+ T cells with IMQ would be sufficient to diminish their subsequent cytokine secretion and proliferative response to a full stimulation, memory T cells were pre-treated with IMQ for 2 hours and rested for 12 hours after washout to remove traces of IMQ and then stimulated with anti-CD3 and anti-CD28 for 3 days.

[9] = tested on: CD4^+ T cells; assay: Proliferation of CFSE-labeled CD4+ T cells stimulated with anti-CD3 and anti-CD28 in the presence of TLR ligands; format: cell-based, human; details: for proliferation of CD4+ T cells (frequency of proliferating cells): compared to control; for inhibition of proliferation, level relative to IMQ: three days
Text: Cell isolation and FACS sorting of T cell populations. Peripheral blood mononuclear cells (PBMC) were isolated from healthy donors by Ficoll Hypaque gradient centrifugation. Total CD4^+ T cells were isolated by negative selection using CD4^+ T cell isolation kit (StemCell Technologies, Vancouver, BC) and stained for fluorescence-activated cell sorting (FACS) with the following antibodies: anti-CD45RO (clone UCHL1), CD45RA (clone H1100), CD25 (clone M-A251) (all from BD Biosciences) and CD127 (clone eBioRDR5) from eBioscience (San Diego, Calif.). The Treg (CD4^+CD25^hiCD127^low/neg) memory T cell (CD4^+CD45RA^−CD45RO^+CD25^low/neg+) and naïve T cell (CD4^+CD45RA^+CD45RO^−CD25^low/neg) populations were sorted on a FACS Aria (BD Biosciences). Unless specified, CD4^+ T cells used in the experiments were Treg-depleted CD4^+ T cells and they were sorted as CD4^+CD25^pos/lowCD127^+. The purity of the sorted CD4^+ T cell population was >98% as assessed by CD3 and CD4 staining after sort. CD14^+ cells were isolated by positive selection using EasySep™ Human CD14 Positive Selection Kit (StemCell Technologies).
(§3) Cell activation and intracellular staining.
While examining the costimulatory role of TLR on CD4^+ T cells, it was unexpectedly discovered that entry of CD4^+ cells into cell cycle with T cell receptor cross-linking and anti-CD28 was blocked by TLR7 engagement. Specifically, CD4^+ T cells were stimulated with anti-CD3 and anti-CD28 in the presence of different TLR agonists followed by analysis of proliferation and cytokine secretion.

[10] = tested on: CD4^+ T cells; assay: Cytokine secretion by stimulated CD4+ T cells, ELISA; format: cell-based, human; details: day 3 after stimulation
Text: as §3, §2

| Compound | proliferation of CD4+ T cells (frequency of proliferating cells) [9] | IFNγ secretion [10] | IL-2 secretion [10] | IL-4 secretion [10] | IL-17 secretion [10] | further results |
| --- | --- | --- | --- | --- | --- | --- |
| C[C@H](CCC(=O)O)C[C@H](C)C[C@H](C)C(=O)/C=C(\O)[C@H](C)C[C@H](C)C/C=C/[C@@H](C)[C@@H](O)[C@@H](C)[C@@H](O)C[C@@H]1CC[C@@](C)([C@H]2CC[C@@](C)([C@@H](C)O)O2)O1 [ionomycin] |  |  |  |  |  | frequency of HIV-1-infected CD4+ T cells [1]: increased |
| COc1cc(N(CC(=O)OCOC(C)=O)CC(=O)OCOC(C)=O)c2nc(COc3cc(C)ccc3N(CC(=O)OCOC(C)=O)CC(=O)OCOC(C)=O)ccc2c1 [Quin-2 AM] |  |  |  |  |  | frequency of viable cells [1]: significantly decreased; frequency of HIV-1-infected CD4+ T cells [1]: marked decrease |
| 5′-TGCTTGCAAGCTTGCAAGCA-3′ (DNA dT*dG*dC*dT*dT*dG*dC*dA*dA*dG*dC*dT*dT*dG*dC*dA*dA*dG*dC*dA) [IRS661] |  |  |  |  |  | IMQ-induced increase in anergy-related gene expression [2]: abrogated; HIV-1 viral load [3]: decreases; concentration of p24 in culture [4]: strongly decreased; expression of 12 anergy-related genes in HIV-1+CD4+ T cells [5]: did not upregulate any of these genes; proviral DNA load [6]: dramatic decrease; increase in calcium concentration upon IMQ stimulation ([7]; pre-incubation with IRS661): impaired; IMQ-induced decrease of IFNγ production [8]: not observed; IMQ-induced decrease of IL-2 production [8]: not observed |
| C=CCn1c(=O)n([C@@H]2O[C@H](CO)[C@@H](O)[C@H]2O)c2nc(N)[nH]c(=O)c21 [Loxoribine] | significant decrease | inhibited | inhibited | inhibited | inhibited | inhibition of proliferation, level relative to IMQ [9]: comparable to IMQ treatment |
| Poly(I:C) |  |  |  |  |  | intracellular calcium concentration ([7]; INDO-1AM ratio over time): not observed |
| CCCCNc1nc(N)c2[nH]c(=O)n(Cc3ccc(C(=O)NCC(=O)O)cc3)c2n1 [CL264] | significant decrease | inhibited | inhibited | inhibited | inhibited |  |
| CCNCc1nc2c(N)nc3ccccc3c2n1CC(C)(C)O [Gardiquimod] | significant decrease | inhibited | inhibited | inhibited | inhibited | inhibition of proliferation, level relative to IMQ [9]: comparable to IMQ treatment |
